Data reported in BindingDB's records for patent US8623892 (Viamet Pharmaceuticals, 2014).

Target: T1, Steroid 17-alpha-hydroxylase/17,20 lyase (Rattus norvegicus, UniProt P11715)
T1 sequence (P11715 whole entry): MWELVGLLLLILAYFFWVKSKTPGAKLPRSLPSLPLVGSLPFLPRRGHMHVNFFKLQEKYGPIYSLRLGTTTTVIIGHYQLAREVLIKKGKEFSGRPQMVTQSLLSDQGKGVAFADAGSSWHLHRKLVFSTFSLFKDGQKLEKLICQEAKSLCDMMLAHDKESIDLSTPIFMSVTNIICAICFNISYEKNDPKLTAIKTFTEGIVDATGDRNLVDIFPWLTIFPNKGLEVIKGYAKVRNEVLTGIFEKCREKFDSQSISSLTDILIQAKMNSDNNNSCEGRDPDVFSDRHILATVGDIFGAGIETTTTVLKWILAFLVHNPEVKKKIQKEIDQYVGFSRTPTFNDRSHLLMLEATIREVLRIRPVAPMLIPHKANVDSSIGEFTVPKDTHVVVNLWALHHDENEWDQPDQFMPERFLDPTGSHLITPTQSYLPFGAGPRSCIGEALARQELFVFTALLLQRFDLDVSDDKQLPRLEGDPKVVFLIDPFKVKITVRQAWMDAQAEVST
Assay: Inhibition Assay
Excerpt: If a weakly binding metal-binding group is utilized, potency may be suboptimal. On the other hand, if a very tightly binding metal-binding group is utilized, selectivity for the target enzyme versus related metalloenzymes may be suboptimal. The lack of optimal selectivity can be a cause for clinical toxicity due to unintended inhibition of these off-target metalloenzymes. […] It is believed that this off-target inhibition is caused primarily by the indiscriminate binding of the currently utilized 1-imidazole to iron in the active site of CYP2C9, CYP2C19 and CYP3A4.

In the case of CC(C)C(O)(c1ccc2cc(OC(F)F)c(OC(F)F)cc2c1)c1c[nH]nn1 (stereo unspecified) [US8623892, 3], the IC50 is reported as 220 nM.
